We go through one molecule from ChEMBL document CHEMBL5523762, “Discovery of Potent and Selective G9a Degraders for the Treatment of Pancreatic Cancer” (J Med Chem, 2024).

Activity calls are given as the source filed them. The rule behind the calls is not given here.

In the assay the target is T1, Histone-lysine N-methyltransferase EHMT2 (Homo sapiens) (UniProt Q96KQ7).
T1 sequence (whole entry): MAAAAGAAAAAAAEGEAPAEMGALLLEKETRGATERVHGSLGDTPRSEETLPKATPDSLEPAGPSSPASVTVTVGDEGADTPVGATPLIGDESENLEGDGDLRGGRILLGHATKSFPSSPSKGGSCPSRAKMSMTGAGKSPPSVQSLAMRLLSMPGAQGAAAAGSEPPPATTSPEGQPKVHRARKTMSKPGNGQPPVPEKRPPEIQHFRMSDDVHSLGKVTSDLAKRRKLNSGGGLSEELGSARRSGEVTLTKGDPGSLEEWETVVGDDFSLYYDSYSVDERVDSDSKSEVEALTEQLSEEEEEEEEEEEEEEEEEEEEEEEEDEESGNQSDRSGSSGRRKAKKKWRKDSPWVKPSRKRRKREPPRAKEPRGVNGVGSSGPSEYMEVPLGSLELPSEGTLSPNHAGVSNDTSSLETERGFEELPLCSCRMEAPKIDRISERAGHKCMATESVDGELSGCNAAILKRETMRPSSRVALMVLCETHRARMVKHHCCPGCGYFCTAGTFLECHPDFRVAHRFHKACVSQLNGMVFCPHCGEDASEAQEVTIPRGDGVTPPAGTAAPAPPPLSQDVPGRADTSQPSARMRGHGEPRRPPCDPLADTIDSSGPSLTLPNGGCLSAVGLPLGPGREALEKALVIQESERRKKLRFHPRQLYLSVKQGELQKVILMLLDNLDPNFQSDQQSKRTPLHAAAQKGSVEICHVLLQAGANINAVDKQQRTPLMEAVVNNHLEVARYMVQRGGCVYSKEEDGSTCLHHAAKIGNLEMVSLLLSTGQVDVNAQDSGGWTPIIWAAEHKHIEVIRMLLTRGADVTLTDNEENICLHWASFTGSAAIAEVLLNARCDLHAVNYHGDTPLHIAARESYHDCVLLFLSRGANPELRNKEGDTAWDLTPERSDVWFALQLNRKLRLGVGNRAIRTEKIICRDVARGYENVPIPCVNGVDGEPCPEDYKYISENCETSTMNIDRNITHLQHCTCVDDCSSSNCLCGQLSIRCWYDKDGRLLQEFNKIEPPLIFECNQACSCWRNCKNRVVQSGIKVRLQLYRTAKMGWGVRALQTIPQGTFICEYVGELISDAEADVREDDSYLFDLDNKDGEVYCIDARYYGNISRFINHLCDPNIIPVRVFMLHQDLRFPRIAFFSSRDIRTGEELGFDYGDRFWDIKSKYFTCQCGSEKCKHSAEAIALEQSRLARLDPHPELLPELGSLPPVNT
The assay is described as follows: Inhibition of N-terminal GST tagged human recombinant G9a (785 to 1210 residues) expressed in Escherichia coli using H3(1 to 21)K9me1 and SAM as substrates incubated for 1 hr by HTRF assay. (TR-FRET usually uses a lanthanide donor and a delayed reading to cut background.)

In the case of `COc1cc2c(NC3CCN(CCCC(=O)NCCCCCCCCNc4cccc5c4C(=O)N(C4CCC(=O)NC4=O)C5=O)CC3)nc(C3CCCCC3)nc2cc1OCCCN1CCCC1` (stereo unspecified), the inhibition entry was “Active”.
